In US20100022584A1, “Modulation of Glutamine Synthetase Activity” (priority 2006, published 2010):
Where a chain is given by its changes, count along the chain named.

Legend:
Assay in all cases: HPLC forward-reaction glutamine synthetase assay with serine protease inhibitors
Assay type in all cases: biochemical, E. coli
[1] = molecular target: T1, glutamine synthetase mutant S52A (Escherichia coli, UniProt P0A9C5, S53A); details: 1 mM inhibitor; for inhibition of the enzyme (in words): HPLC assays; for % Reduction in ADP-based Specific Activity / % Reduction in Glutamine-based Specific Activity: 60 min pre-incubation, vs no-inhibitor control, positive = activity increased; for % Conversion: glutamine-based divided by ADP-based specific activity
T1 construct: made in house; host or cells: E. coli YMC11 (glutamine synthetase auxotroph), pBluescript II SK+
T1 sequence (P0A9C5 2-469 S53A limits assumed): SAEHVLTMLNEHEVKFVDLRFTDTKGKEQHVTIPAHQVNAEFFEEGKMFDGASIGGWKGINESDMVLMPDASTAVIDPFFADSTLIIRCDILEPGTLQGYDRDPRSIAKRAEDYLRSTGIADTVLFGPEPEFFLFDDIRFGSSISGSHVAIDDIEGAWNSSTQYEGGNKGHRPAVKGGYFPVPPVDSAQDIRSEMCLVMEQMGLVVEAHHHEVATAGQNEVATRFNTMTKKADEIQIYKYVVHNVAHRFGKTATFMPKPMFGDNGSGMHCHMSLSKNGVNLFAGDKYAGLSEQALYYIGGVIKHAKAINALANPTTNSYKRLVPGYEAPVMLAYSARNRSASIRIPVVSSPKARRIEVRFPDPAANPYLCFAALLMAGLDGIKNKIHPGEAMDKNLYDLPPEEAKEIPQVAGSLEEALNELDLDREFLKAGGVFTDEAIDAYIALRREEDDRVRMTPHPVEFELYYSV
Procedure: (§1) This assay was set up to measure glutamine synthetase activity according to the forward reaction, and measures the amount of glutamine formed from […] of L-glutamate in the presence of MnCO3-ATP (the basis of one reaction) and MgATP (the basis of a second reaction). In addition, the amount of ADP formed is also measured in a separate assay, using the same reagents.
(§2) All enzyme preparations were adjusted to the same concentration of protein, and added to the assay mixture in a volume of 50 μl. The addition of the enzyme started the reaction, which was then allowed to proceed for 1 hour. The reaction was stopped by the addition of 6 μl of a 50% solution of trichloroacetic acid. Each assay was then aliquoted into 4 HPLC vials (150 μl per vial), two of which were assayed for glutamate and glutamine using a Phenomenex Luna 5 μC18 Column on an Agilent 100 HPLC instrument. The ATP/ADP assays were run on a Chromolith Performance RP-18c column also using an Agilent 100 HPLC instrument.
(§3) As it is believed that two putative catalytic triads, similar to those in the serine proteases, are involved in the reaction mechanism of glutamine synthetase, certain of the mutants were also assayed by HPLC in the presence of the serine protease inhibitors, AEBSF and PMSF, in order to assess the effect that these inhibitors had on the enzyme. The enzymes assessed were the adenylylated WT enzyme, the deadenylylated WT enzyme, and the mutant enzymes S52A, S52A Y397V, S53A, S53A Y397V, S52A S53A and S52A S53A Y397V. The enzymes were pre-incubated for 60 minutes in the presence of 1 mM PMSF or 1 mM AEBSF. A control reaction was set up for each enzyme, which contained no inhibitor. Each enzyme was then added to assays set up as described above. The assay was allowed to proceed for 60 minutes, then stopped by the addition of […] of 50% TCA, after which they were analysed by HPLC. All assays were run in triplicate.
(§4) In addition to the γ-glutamyl transferase assays, assays were also developed to measure the rate of conversion of ATP and glutamate to ADP and glutamine by HPLC. These were set up as single assays but analysed separately for glutamate and glutamine and ATP and ADP. The conversion rates for glutamate to glutamine, in both the presence of Mn^2+ and Mg^2+ by glutamine synthetase, is referred to as the […] specific activity and is presented in μmoles/min/mg protein. The conversion rates for ATP to ADP, in both the presence of Mn^2+ and Mg^2+ by glutamine synthetase, is referred to as the ADP-based specific activity and is presented in μmoles/min/mg protein. The percentage of conversion was also calculated by dividing the glutamine-based specific activity by the ADP-based specific activity, and this value is interpreted as the ability of the enzyme to complete both steps of the reaction, i.e., glutamate to glutamine and ATP to ADP, at an equivalent level of efficiency.

[2] = molecular target: T2, glutamine synthetase mutant S52A Y397V (Escherichia coli, UniProt P0A9C5, S53A/Y398V); details: 1 mM inhibitor; for inhibition of the enzyme (in words): HPLC assays; for % Conversion: glutamine-based divided by ADP-based specific activity
T2 construct: made in house; host or cells: E. coli YMC11 (glutamine synthetase auxotroph), pBluescript II SK+
T2 sequence (P0A9C5 2-469 S53A/Y398V limits assumed): T1 sequence (P0A9C5 2-469 S53A limits assumed) with Y397V
Procedure: as §1, §2, §3, §4

[3] = molecular target: T3, glutamine synthetase mutant Y397V (Escherichia coli, UniProt P0A9C5, Y398V); details: 1 mM inhibitor; for inhibition of the enzyme (in words): HPLC assays; for % Conversion: glutamine-based divided by ADP-based specific activity
T3 construct: made in house; host or cells: E. coli YMC11 (glutamine synthetase auxotroph), pBluescript II SK+
T3 sequence (P0A9C5 2-469 Y398V limits assumed): T1 sequence (P0A9C5 2-469 S53A limits assumed) with A52S, Y397V

SMILES | inhibition of the enzyme (in words) [1] | % Reduction in ADP-based Specific Activity ([1]; Mg assay) [%] | % Reduction in Glutamine-based Specific Activity ([1]; Mg assay) [%] | % Conversion ([1]; Mg assay) [%] | % Reduction in ADP-based Specific Activity ([1]; Mn assay) | % Reduction in Glutamine-based Specific Activity ([1]; Mn assay) | % Conversion ([1]; Mn assay) [%] | inhibition of the enzyme (in words) [2] | % Conversion ([2]; Mg assay) [%] | % Conversion ([2]; Mn assay) [%] | inhibition of the enzyme (in words) [3] | % Conversion ([3]; Mg assay) [%] | % Conversion ([3]; Mn assay) [%]
O=S(=O)(F)Cc1ccccc1 [PMSF] | found to inhibit | −19.51 | −43.54 | 59 | −13.41% | −39.84% | 64 | found to inhibit | 49 | 67 | found to inhibit | 78 | 61
NCCc1ccc(S(=O)(=O)F)cc1 [AEBSF] | appeared to cause inhibition | −31.77 | −10.61 | 109 | +30.66% | +15.27% | 81 | appeared to cause inhibition | – | 85 | appeared to cause inhibition | 107 | 108
